Data: the Kinase Knowledgebase extract (Sharma et al. 2016)

Biological target: PIK3CG (human) (UniProt P48736)
Test: Assessment of PIK3CG Kinase Activity

Chain of PIK3CG (human) (P48736 whole entry, looked up): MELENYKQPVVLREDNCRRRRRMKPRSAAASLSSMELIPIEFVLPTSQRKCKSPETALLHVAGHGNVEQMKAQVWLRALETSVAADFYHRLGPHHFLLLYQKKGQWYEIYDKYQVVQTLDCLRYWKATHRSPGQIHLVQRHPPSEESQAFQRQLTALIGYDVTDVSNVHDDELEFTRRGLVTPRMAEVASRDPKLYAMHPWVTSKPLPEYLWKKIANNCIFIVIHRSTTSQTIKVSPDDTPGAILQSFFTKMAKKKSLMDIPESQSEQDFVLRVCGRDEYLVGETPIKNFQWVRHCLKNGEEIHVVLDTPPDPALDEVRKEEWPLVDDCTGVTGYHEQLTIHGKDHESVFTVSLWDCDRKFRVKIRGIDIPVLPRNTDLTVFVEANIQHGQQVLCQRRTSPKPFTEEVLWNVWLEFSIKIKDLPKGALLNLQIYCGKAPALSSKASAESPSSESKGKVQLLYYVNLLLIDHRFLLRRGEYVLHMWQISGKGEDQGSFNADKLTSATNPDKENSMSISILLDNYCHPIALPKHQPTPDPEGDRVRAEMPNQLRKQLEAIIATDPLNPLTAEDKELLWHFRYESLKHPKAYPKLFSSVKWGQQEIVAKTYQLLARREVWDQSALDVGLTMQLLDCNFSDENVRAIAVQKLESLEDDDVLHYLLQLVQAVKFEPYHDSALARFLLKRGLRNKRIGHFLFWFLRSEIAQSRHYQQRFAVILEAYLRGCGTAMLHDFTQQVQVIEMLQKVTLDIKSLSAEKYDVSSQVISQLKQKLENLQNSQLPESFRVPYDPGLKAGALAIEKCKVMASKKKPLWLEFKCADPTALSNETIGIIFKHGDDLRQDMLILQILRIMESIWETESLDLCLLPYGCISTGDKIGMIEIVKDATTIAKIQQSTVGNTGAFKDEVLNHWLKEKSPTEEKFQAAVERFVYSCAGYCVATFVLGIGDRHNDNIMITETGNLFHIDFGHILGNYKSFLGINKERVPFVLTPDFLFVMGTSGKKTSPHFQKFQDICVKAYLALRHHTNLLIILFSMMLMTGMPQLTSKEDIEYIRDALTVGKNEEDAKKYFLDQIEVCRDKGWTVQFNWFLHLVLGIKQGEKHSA

| IC50 [nM] | Structure (SMILES) |
| --- | --- |
| < 800 | CCc1csc(CCNC(=O)Nc2nc3c(s2)-c2c(c(-c4cccnc4)nn2C2CCN(C)CC2)CC3)n1 |
| < 800 | NC(=O)Nc1cccc(CNC(=O)Nc2nc3c(s2)-c2c(c(-c4cccnc4)nn2-c2ccccc2Cl)CC3)c1 |
| < 800 | CC(C)(C)OC(=O)N1CC[C@H](CNC(=O)Nc2nc3c(s2)-c2c(c(-c4cncnc4)nn2-c2ccccc2Cl)CC3)C1 |
| < 800 | O=C(NCc1ncc[nH]1)Nc1nc2c(s1)-c1c(c(-c3cccnc3)nn1-c1ccccc1Cl)CC2 |
| < 800 | C[C@H](NC(=O)Nc1nc2c(s1)-c1c(c(-c3ccccc3)nn1-c1ccccc1Cl)CC2)C(=O)N1CCN(C)CC1 |
| < 800 | O=C(NCCN1CCCC1=O)Nc1nc2c(s1)-c1c(c(-c3ccccc3)nn1-c1ccccc1Cl)CC2 |
| < 800 | CCn1cnc(CCNC(=O)Nc2nc3c(s2)-c2c(c(-c4cccnc4)nn2C2CCN(C)CC2)CC3)c1 |
| < 800 | O=C(Nc1nc2c(s1)-c1c(c(-c3cncnc3)nn1-c1ccccc1Cl)CC2)NC1CCCNC1 (configuration not stated) |
| < 800 | O=C(NCCc1cn[nH]c1)Nc1nc2c(s1)-c1c(c(-c3cccnc3)nn1-c1ccccc1Cl)CC2 |
| < 800 | CN1CCN(c2ccc(NC(=O)Nc3nc4c(s3)-c3c(c(-c5cncnc5)nn3-c3ccccc3F)CC4)cc2)CC1 |
| < 800 | CCn1cnc(CCNC(=O)Nc2nc3c(s2)-c2c(c(-c4cncnc4)nn2-c2ccccc2Cl)CC3)c1 |
| < 800 | O=C(Nc1nc2c(s1)-c1c(c(-c3cccnc3)nn1-c1ccccc1Cl)CC2)N1CCC(N2CCNC2=O)CC1 |
| < 800 | C[C@@H](NC(=O)Nc1nc2c(s1)-c1c(c(-c3ccccc3)nn1-c1ccccc1Cl)CC2)C(=O)N1CCCCC1 |
| < 800 | CCN(CC)C(=O)N1CC[C@H](CNC(=O)Nc2nc3c(s2)-c2c(c(-c4cncnc4)nn2-c2ccccc2Cl)CC3)C1 |
| < 800 | O=C(Nc1nc2c(s1)-c1c(c(-c3cccnc3)nn1-c1ccccc1Cl)CC2)N1CCCCC1c1nc2ccccc2[nH]1 (configuration not stated) |
| < 800 | CN1CCN(Cc2cccc(NC(=O)Nc3nc4c(s3)-c3c(c(-c5cncnc5)nn3-c3ccccc3F)CC4)c2)CC1 |
| < 800 | Cc1ccc(CN2CC(CNC(=O)Nc3nc4c(s3)-c3c(c(-c5cccnc5)nn3-c3ccccc3Cl)CC4)CC2=O)cc1 (configuration not stated) |
| < 800 | O=C(NCCN1CCNC1=O)Nc1nc2c(s1)-c1c(c(-c3cccnc3)nn1-c1ccccc1Cl)CC2 |
| < 800 | O=C(NCc1nnn[nH]1)Nc1nc2c(s1)-c1c(c(-c3cncnc3)nn1-c1ccccc1Cl)CC2 |

| IC50 [nM] | Structure (SMILES) |
| --- | --- |
| < 800 | NS(=O)(=O)c1ccc(CNC(=O)Nc2nc3c(s2)-c2c(c(-c4cncnc4)nn2-c2ccccc2Cl)CC3)cc1 |
| < 800 | O=C(NCc1cccc(N2CCNC2=O)c1)Nc1nc2c(s1)-c1c(c(Nc3ccccn3)nn1-c1ccccc1)CC2 |
| < 800 | CC(C)(C)OC(=O)CCNC(=O)Nc1nc2c(s1)-c1c(c(-c3cccnc3)nn1-c1ccccc1Cl)CC2 |
| < 800 | CC(C)(C)OC(=O)N1CCC[C@@H]1CNC(=O)Nc1nc2c(s1)-c1c(c(-c3cccnc3)nn1-c1ccccc1Cl)CC2 |
| < 800 | O=C(NC[C@H]1CCCN1)Nc1nc2c(s1)-c1c(c(-c3cncnc3)nn1-c1ccccc1Cl)CC2 |
| < 800 | NC(=O)Nc1nc2c(s1)-c1c(c(-c3cccnc3)nn1-c1ccccc1Cl)CC2 |
| < 800 | N[C@@H]1CC[C@@H](NC(=O)Nc2nc3c(s2)-c2c(c(-c4ccccc4)nn2-c2ccccc2Cl)CC3)C1 |
| < 800 | O=C(NCc1cccc(N2CCNC2=O)c1)Nc1nc2c(s1)-c1c(c(-c3cncnc3)nn1-c1ccccc1Cl)CC2 |
| < 800 | CN(C)C(=O)N1CC[C@H](CNC(=O)Nc2nc3c(s2)-c2c(c(-c4ccccc4)nn2-c2cccc(Cl)c2)CC3)C1 |
| < 800 | CC(=O)Nc1cccc(CNC(=O)Nc2nc3c(s2)-c2c(c(-c4cncnc4)nn2-c2ccccc2Cl)CC3)c1 |
| < 800 | CN1CCC(n2nc(-c3cccnc3)c3c2-c2sc(NC(=O)NCc4cccc(NC(N)=O)c4)nc2CC3)CC1 |
| < 800 | CCc1cnc(CCNC(=O)Nc2nc3c(s2)-c2c(c(-c4ccccc4)nn2-c2cccc(Cl)c2)CC3)o1 |
| < 800 | COc1ccccc1C1CCN(C(=O)Nc2nc3c(s2)-c2c(c(-c4cccnc4)nn2-c2ccccc2Cl)CC3)C1 (configuration not stated) |
| < 800 | O=C(Nc1nc2c(s1)-c1c(c(-c3cccnc3)nn1-c1ccccc1Cl)CC2)N1CCC(NC(=O)C(F)(F)F)C1 (configuration not stated) |
| < 800 | CC(C)(C)OC(=O)CCNC(=O)Nc1nc2c(s1)-c1c(c(Nc3ccccn3)nn1-c1ccccc1)CC2 |
| < 800 | CN(C)C(=O)CCCNC(=O)Nc1nc2c(s1)-c1c(c(-c3ccccc3)nn1-c1ccccc1Cl)CC2 |
| < 800 | CC(C)c1nnc(CCNC(=O)Nc2nc3c(s2)-c2c(c(-c4cncnc4)nn2-c2ccccc2Cl)CC3)o1 |
| < 800 | CC(C)(C)OC(=O)CNC(=O)Nc1nc2c(s1)-c1c(c(-c3cccnc3)nn1C1CCN(C3CCCC3)CC1)CC2 |
| < 800 | O=C(NCCn1ccnc1)Nc1nc2c(s1)-c1c(c(-c3cncnc3)nn1-c1ccccc1F)CC2 |

| IC50 [nM] | Structure (SMILES) |
| --- | --- |
| < 800 | O=C(NCCc1ccccn1)Nc1nc2c(s1)-c1c(c(-c3cccnc3)nn1-c1ccccc1Cl)CC2 |
| < 800 | O=C(Nc1nc2c(s1)-c1c(cnn1-c1ccccc1)CC2)N1CCCCC1 |
| < 800 | CN(C)C(=O)CCNC(=O)Nc1nc2c(s1)-c1c(c(-c3cccnc3)nn1-c1ccccc1Cl)CC2 |
| < 800 | CN(C)C(=O)Nc1nc2c(s1)-c1c(c(-c3cncnc3)nn1-c1ccccc1Cl)CC2 |
| < 800 | O=C(NCCc1nc(C2CC2)no1)Nc1nc2c(s1)-c1c(c(-c3ccccc3)nn1-c1cccc(Cl)c1)CC2 |
| < 800 | CC1(C)NC(=O)N(Cc2ccc(CNC(=O)Nc3nc4c(s3)-c3c(c(-c5cccnc5)nn3-c3ccccc3Cl)CC4)cc2)C1=O |
| < 800 | COc1cc(CNC(=O)Nc2nc3c(s2)-c2c(c(-c4cncnc4)nn2-c2ccccc2Cl)CC3)cc(OC)c1 |
| < 800 | C[C@@H](NC(=O)Nc1nc2c(s1)-c1c(c(-c3ccccc3)nn1-c1ccccc1Cl)CC2)C(=O)N(C)C |
| < 800 | CN1CCN(CCCNC(=O)Nc2nc3c(s2)-c2c(c(-c4cncnc4)nn2-c2ccccc2F)CC3)CC1 |
| < 800 | CC(C)(C)OC(=O)N1CCC[C@@H]1CNC(=O)Nc1nc2c(s1)-c1c(c(-c3cncnc3)nn1-c1ccccc1Cl)CC2 |
| < 800 | O=C(NC[C@@H]1CCCN1)Nc1nc2c(s1)-c1c(c(-c3cncnc3)nn1-c1ccccc1F)CC2 |
| < 800 | Nc1nnc(CNC(=O)Nc2nc3c(s2)-c2c(c(-c4cncnc4)nn2-c2ccccc2Cl)CC3)[nH]1 |
| < 800 | CC(C)c1cccc(CNC(=O)Nc2nc3c(s2)-c2c(c(-c4cccnc4)nn2C2CCN(C)CC2)CC3)c1 |
| < 800 | O=C(NCc1cccc(C(=O)NC2CCCCC2)c1)Nc1nc2c(s1)-c1c(c(-c3cccnc3)nn1-c1ccccc1Cl)CC2 |
| < 800 | O=C(NCCc1cccc(C(F)(F)F)c1)Nc1nc2c(s1)-c1c(c(-c3cncnc3)nn1-c1ccccc1Cl)CC2 |
| < 800 | CNC(=O)Nc1nc2c(s1)-c1c(c(-c3cccnc3)nn1-c1ccc(S(N)(=O)=O)cc1Cl)CC2 |
| < 800 | CC(=O)N(C)c1cccc(CNC(=O)Nc2nc3c(s2)-c2c(c(-c4cncnc4)nn2-c2ccccc2Cl)CC3)c1 |
| < 800 | O=C1Cc2ccccc2CN1CC1CCN(C(=O)Nc2nc3c(s2)-c2c(c(-c4cccnc4)nn2-c2ccccc2Cl)CC3)C1 (configuration not stated) |

| Structure (SMILES) | IC50 [nM] |
| --- | --- |
| O=C(NC[C@H]1CCCN1C(=O)Oc1ccccc1)Nc1nc2c(s1)-c1c(c(-c3cncnc3)nn1-c1ccccc1Cl)CC2 | < 800 |
